# Measured values from article PMC11864979, “First-in-class ultralong-target-residence-time p38α inhibitors as a mitosis-targeted therapy for colorectal cancer” (Nature Cancer, 2025).
# Like-named read-outs stand apart in the source and are kept apart here.
# Tests used:
# Assay in all cases: selectivity profiling in a panel of 340 wild-type kinases (Reaction Biology Europe)
# Type in all cases: binding
# 340 wild-type kinases [1] = biological target: T1, 340 wild-type kinases (Homo sapiens, UniProt Q8NE63)
# T1 construct: purchased Reaction Biology Europe
# T1 sequence (Q8NE63 1-616): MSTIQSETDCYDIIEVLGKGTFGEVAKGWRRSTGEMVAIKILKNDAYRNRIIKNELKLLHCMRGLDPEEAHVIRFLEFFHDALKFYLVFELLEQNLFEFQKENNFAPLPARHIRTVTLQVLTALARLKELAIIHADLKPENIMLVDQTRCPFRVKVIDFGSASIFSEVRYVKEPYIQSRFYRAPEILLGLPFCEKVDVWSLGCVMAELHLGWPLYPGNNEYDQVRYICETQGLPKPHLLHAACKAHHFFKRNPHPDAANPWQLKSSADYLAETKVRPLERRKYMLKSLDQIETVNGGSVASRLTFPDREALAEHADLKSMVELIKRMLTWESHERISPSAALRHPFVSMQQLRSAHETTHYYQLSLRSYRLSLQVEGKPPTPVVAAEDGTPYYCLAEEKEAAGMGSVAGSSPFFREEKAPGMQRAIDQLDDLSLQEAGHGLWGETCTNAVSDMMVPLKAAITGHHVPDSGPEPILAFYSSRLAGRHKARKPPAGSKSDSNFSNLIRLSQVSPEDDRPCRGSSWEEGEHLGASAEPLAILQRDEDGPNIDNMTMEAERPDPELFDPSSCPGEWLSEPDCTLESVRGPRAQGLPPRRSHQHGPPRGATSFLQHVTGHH
# 340 wild-type kinases [2] = biological target: T2, 340 wild-type kinases (Homo sapiens, UniProt Q9P286)
# T2 construct: purchased Reaction Biology Europe
# 340 wild-type kinases [3] = biological target: T3, 340 wild-type kinases (Homo sapiens, UniProt P36888)
# T3 construct: purchased Reaction Biology Europe
# T3 sequence (P36888 27-993): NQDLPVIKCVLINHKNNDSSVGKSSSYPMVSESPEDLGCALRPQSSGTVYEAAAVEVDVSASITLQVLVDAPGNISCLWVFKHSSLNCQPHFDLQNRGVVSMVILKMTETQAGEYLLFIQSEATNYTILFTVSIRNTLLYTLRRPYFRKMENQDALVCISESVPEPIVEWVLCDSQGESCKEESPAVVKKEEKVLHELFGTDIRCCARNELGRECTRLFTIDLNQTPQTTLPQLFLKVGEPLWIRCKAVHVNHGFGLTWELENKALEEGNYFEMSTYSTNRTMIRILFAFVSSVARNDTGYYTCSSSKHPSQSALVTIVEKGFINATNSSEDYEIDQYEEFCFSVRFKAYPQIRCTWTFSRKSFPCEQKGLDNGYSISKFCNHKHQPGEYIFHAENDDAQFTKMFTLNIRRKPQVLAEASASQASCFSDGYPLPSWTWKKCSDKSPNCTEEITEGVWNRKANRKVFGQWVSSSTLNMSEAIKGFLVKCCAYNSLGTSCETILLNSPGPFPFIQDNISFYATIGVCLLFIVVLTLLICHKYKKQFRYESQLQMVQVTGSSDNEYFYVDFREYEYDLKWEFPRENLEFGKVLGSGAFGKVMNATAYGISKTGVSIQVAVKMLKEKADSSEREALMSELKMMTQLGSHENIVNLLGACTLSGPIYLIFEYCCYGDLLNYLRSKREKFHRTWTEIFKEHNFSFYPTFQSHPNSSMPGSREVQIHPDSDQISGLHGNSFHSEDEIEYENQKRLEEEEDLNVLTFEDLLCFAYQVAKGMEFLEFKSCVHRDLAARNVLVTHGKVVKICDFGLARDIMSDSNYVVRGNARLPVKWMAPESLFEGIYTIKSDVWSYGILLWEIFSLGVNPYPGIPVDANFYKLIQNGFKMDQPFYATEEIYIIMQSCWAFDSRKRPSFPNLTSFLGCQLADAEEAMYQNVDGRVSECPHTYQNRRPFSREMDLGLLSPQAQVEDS
# 340 wild-type kinases [4] = biological target: T4, 340 wild-type kinases (Homo sapiens, UniProt P21802)
# T4 construct: purchased Reaction Biology Europe
# T4 sequence (P21802 22-821): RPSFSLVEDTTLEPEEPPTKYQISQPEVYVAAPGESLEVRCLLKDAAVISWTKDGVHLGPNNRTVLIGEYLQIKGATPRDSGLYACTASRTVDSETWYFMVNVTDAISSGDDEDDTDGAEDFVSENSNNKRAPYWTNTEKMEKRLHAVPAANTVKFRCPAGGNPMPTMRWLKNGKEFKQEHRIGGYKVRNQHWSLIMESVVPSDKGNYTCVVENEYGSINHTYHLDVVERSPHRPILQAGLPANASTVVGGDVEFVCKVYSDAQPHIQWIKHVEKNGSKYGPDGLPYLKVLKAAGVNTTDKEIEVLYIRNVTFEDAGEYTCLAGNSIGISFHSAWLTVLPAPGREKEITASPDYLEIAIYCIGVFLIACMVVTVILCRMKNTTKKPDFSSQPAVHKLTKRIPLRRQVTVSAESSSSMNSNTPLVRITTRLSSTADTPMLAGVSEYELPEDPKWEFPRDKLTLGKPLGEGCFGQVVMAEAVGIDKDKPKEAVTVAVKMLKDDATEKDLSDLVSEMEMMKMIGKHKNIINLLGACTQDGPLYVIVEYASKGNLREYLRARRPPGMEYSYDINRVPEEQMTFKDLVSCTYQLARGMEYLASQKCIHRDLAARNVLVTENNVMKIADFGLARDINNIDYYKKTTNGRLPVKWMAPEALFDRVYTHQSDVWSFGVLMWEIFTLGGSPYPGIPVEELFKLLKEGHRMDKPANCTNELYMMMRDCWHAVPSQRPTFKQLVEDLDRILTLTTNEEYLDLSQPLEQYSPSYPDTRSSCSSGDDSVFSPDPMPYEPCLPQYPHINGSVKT
# 340 wild-type kinases [5] = biological target: T5, 340 wild-type kinases (Homo sapiens, UniProt Q9H3Y6)
# T5 construct: purchased Reaction Biology Europe
# T5 sequence (Q9H3Y6 whole entry): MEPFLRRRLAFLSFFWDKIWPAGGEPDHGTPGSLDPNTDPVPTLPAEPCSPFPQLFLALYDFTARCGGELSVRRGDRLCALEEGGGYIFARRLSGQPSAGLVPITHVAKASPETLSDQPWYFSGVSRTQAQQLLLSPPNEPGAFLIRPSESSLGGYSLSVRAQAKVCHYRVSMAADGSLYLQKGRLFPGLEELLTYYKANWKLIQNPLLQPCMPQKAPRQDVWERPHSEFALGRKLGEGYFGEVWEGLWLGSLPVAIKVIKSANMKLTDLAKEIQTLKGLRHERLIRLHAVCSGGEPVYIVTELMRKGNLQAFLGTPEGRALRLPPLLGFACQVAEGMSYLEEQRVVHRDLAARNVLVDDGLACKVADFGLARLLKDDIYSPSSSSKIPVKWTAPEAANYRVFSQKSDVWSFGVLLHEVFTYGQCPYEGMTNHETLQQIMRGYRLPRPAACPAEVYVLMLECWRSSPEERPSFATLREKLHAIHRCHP
# 340 wild-type kinases [6] = biological target: T6, 340 wild-type kinases (Homo sapiens, UniProt P42681)
# T6 construct: purchased Reaction Biology Europe
# T6 sequence (P42681 1-527): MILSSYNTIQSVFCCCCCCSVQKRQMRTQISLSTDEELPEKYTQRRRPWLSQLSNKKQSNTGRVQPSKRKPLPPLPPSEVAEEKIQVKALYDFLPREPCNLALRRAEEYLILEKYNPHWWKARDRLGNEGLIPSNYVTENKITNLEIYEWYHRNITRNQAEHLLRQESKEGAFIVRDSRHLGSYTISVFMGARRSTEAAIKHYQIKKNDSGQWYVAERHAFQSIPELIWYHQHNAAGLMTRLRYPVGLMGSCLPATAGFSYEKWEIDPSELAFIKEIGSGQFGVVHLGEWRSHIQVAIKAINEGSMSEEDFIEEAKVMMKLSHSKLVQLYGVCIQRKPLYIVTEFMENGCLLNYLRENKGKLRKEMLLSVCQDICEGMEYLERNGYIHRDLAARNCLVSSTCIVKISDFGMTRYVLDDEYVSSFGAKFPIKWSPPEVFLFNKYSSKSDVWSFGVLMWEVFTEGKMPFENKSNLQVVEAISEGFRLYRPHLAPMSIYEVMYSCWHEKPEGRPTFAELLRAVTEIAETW
# 340 wild-type kinases [7] = biological target: T7, 340 wild-type kinases (Homo sapiens, UniProt Q9Y3S1)
# T7 construct: purchased Reaction Biology Europe
# T7 sequence (Q9Y3S1 whole entry): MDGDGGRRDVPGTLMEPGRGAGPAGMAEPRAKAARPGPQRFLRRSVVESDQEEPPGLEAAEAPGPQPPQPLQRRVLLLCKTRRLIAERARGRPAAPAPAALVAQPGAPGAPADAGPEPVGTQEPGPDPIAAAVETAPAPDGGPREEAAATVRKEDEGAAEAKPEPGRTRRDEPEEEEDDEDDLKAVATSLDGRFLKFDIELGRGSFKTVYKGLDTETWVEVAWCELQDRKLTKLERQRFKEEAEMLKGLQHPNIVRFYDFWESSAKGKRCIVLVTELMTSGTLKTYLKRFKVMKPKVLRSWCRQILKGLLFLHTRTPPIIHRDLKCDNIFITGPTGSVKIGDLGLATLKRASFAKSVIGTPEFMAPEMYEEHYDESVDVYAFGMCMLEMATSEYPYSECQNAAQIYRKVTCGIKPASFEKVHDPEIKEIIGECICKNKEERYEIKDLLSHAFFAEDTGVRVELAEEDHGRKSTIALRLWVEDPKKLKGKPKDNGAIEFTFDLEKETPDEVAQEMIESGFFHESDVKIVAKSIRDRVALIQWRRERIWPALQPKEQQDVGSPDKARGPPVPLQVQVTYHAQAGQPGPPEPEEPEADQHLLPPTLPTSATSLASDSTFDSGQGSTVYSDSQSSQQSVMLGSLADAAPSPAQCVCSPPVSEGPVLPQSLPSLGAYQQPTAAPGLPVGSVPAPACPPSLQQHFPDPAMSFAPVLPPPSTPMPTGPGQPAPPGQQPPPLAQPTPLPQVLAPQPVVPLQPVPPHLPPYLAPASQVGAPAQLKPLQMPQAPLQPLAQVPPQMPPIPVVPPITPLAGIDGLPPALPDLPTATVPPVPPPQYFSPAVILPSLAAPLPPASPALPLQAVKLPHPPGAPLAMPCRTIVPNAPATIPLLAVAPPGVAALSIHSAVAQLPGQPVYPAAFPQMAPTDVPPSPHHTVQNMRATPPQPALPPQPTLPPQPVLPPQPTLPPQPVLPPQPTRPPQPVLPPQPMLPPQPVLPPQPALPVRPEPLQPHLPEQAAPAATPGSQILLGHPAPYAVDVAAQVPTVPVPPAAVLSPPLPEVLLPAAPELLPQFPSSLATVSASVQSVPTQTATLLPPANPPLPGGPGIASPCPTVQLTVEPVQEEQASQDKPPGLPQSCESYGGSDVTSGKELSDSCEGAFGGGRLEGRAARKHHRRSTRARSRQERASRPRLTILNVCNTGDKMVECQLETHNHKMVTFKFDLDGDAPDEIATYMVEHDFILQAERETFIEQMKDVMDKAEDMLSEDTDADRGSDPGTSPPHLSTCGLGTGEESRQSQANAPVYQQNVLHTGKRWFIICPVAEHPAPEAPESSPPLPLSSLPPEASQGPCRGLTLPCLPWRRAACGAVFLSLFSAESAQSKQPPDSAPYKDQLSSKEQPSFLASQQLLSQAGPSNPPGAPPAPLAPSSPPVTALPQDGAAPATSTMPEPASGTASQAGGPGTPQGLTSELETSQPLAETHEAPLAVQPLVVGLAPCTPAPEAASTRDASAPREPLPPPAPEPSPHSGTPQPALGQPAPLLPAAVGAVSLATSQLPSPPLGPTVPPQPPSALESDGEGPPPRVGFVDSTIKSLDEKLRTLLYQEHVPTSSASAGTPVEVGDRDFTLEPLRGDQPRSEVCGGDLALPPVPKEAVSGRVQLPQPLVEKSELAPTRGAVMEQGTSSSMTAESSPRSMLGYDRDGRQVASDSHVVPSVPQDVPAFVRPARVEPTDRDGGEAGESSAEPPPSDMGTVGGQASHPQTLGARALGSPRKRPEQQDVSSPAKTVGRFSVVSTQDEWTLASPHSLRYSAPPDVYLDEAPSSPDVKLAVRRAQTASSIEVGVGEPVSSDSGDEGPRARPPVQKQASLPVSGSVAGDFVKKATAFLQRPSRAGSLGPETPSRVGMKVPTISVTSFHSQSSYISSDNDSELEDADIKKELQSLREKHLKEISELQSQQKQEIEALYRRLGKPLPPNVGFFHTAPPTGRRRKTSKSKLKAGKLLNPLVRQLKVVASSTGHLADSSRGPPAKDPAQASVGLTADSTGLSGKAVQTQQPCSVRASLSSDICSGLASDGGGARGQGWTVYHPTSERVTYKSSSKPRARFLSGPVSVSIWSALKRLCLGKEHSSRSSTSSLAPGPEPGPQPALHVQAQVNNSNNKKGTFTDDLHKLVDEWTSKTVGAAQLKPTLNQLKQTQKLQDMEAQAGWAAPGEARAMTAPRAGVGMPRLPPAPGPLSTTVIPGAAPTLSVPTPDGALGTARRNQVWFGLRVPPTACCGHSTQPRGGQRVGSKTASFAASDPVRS
# 340 wild-type kinases [8] = biological target: T8, 340 wild-type kinases (Homo sapiens, UniProt P51957)
# T8 construct: purchased Reaction Biology Europe
# T8 sequence (P51957 whole entry): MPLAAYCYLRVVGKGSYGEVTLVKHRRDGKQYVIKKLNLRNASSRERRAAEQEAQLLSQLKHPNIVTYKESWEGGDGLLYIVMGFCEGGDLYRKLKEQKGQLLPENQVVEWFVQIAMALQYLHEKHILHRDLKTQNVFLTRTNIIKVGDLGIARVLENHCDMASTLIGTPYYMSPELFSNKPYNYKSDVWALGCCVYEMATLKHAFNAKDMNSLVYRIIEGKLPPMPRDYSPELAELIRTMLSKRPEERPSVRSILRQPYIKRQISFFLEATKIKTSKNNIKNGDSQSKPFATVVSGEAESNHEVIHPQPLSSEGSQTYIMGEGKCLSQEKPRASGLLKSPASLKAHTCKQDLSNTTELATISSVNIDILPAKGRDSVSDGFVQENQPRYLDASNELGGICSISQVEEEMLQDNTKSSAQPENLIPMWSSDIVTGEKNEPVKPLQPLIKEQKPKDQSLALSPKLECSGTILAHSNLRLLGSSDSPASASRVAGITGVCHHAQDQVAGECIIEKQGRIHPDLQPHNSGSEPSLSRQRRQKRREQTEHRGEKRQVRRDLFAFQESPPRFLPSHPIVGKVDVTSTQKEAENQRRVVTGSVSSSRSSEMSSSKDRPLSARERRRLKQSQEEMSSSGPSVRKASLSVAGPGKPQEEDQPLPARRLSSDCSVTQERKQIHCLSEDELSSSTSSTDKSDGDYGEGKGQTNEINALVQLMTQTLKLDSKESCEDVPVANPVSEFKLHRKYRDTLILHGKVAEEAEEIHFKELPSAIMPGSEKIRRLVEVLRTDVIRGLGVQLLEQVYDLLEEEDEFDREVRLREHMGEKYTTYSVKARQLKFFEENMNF
compound,measurement,setting,value
CNC(=O)c1ccc2c(c1)C(=O)c1ccc(Nc3ccc(F)c(NC(=O)C4CC4)c3)cc1CC2 [Compound 2015],remaining activity at 0.2 µM,"340 wild-type kinases [1]; 0.2 µM 2015, read-out: HIPK4 residual activity",96.4%
same,remaining activity at 1 µM,"340 wild-type kinases [1]; 1 µM 2015, read-out: HIPK4 residual activity",95.4%
same,remaining activity at 0.2 µM,"340 wild-type kinases [1]; HIPK4, 0.2 µM, read-out: residual activity",96.4%
same,remaining activity at 1 µM,"340 wild-type kinases [1]; HIPK4, 1 µM, read-out: residual activity",95.5%
same,remaining activity at 0.2 µM,"340 wild-type kinases [2]; 0.2 µM 2015, read-out: PAK7 residual activity",97.1%
same,remaining activity at 1 µM,"340 wild-type kinases [2]; 1 µM 2015, read-out: PAK7 residual activity",84.3%
same,remaining activity at 0.2 µM,"340 wild-type kinases [2]; PAK7, 0.2 µM, read-out: residual activity",97.1%
same,remaining activity at 1 µM,"340 wild-type kinases [2]; PAK7, 1 µM, read-out: residual activity",84.3%
same,remaining activity at 0.2 µM,"340 wild-type kinases [3]; 0.2 µM 2015, read-out: FLT3 residual activity",84.5%
same,remaining activity at 1 µM,"340 wild-type kinases [3]; 1 µM 2015, read-out: FLT3 residual activity",80%
same,remaining activity at 0.2 µM,"340 wild-type kinases [3]; FLT3, 0.2 µM, read-out: residual activity",84.5%
same,remaining activity at 1 µM,"340 wild-type kinases [3]; FLT3, 1 µM, read-out: residual activity",80%
same,remaining activity at 0.2 µM,"340 wild-type kinases [4]; 0.2 µM 2015, read-out: FGFR2 residual activity",94.1%
same,remaining activity at 1 µM,"340 wild-type kinases [4]; 1 µM 2015, read-out: FGFR2 residual activity",96%
same,remaining activity at 0.2 µM,"340 wild-type kinases [4]; FGFR2, 0.2 µM, read-out: residual activity",94.1%
same,remaining activity at 1 µM,"340 wild-type kinases [4]; FGFR2, 1 µM, read-out: residual activity",96%
same,remaining activity at 0.2 µM,"340 wild-type kinases [5]; 0.2 µM 2015, read-out: SRMS residual activity",96.9%
same,remaining activity at 1 µM,"340 wild-type kinases [5]; 1 µM 2015, read-out: SRMS residual activity",98.5%
same,remaining activity at 0.2 µM,"340 wild-type kinases [5]; SRMS, 0.2 µM, read-out: residual activity",96.9%
same,remaining activity at 1 µM,"340 wild-type kinases [5]; SRMS, 1 µM, read-out: residual activity",98.5%
same,remaining activity at 0.2 µM,"340 wild-type kinases [6]; 0.2 µM 2015, read-out: TXK residual activity",94.2%
same,remaining activity at 1 µM,"340 wild-type kinases [6]; 1 µM 2015, read-out: TXK residual activity",90%
same,remaining activity at 0.2 µM,"340 wild-type kinases [6]; TXK, 0.2 µM, read-out: residual activity",94.2%
same,remaining activity at 1 µM,"340 wild-type kinases [6]; TXK, 1 µM, read-out: residual activity",90%
same,remaining activity at 0.2 µM,"340 wild-type kinases [7]; 0.2 µM 2015, read-out: WNK2 residual activity",107%
same,remaining activity at 1 µM,"340 wild-type kinases [7]; 1 µM 2015, read-out: WNK2 residual activity",111%
same,remaining activity at 0.2 µM,"340 wild-type kinases [7]; WNK2, 0.2 µM, read-out: residual activity",107%
same,remaining activity at 1 µM,"340 wild-type kinases [7]; WNK2, 1 µM, read-out: residual activity",111%
same,remaining activity at 0.2 µM,"340 wild-type kinases [8]; 0.2 µM 2015, read-out: NEK4 residual activity",105%
same,remaining activity at 1 µM,"340 wild-type kinases [8]; 1 µM 2015, read-out: NEK4 residual activity",101%
same,remaining activity at 0.2 µM,"340 wild-type kinases [8]; NEK4, 0.2 µM, read-out: residual activity",105%
same,remaining activity at 1 µM,"340 wild-type kinases [8]; NEK4, 1 µM, read-out: residual activity",101%
